ChEMBL document CHEMBL4825673, “Total and Semisyntheses of Polymyxin Analogues with 2-Thr or 10-Thr Modifications to Decipher the Structure-Activity Relationship and Improve the Antibacterial Activity” (J Med Chem, 2021)
Values after ≈ are worked out from the molar mass of the structure shown.

Legend:
Format in all cases: functional
Conditions in all cases: read-out: MIC100
[1] = tested on: Pseudomonas aeruginosa; assay: Antibacterial activity against Pseudomonas aeruginosa PAO1 assessed as inhibition of bacterial growth incubated for 24 hrs by broth microdilution method
[2] = tested on: Escherichia coli; assay: Antibacterial activity against Escherichia coli assessed as inhibition of bacterial growth incubated for 24 hrs by broth microdilution method
[3] = tested on: Klebsiella pneumoniae; assay: Antibacterial activity against Klebsiella pneumoniae assessed as inhibition of bacterial growth incubated for 24 hrs by broth microdilution method
[4] = tested on: Acinetobacter baumannii; assay: Antibacterial activity against Acinetobacter baumannii assessed as inhibition of bacterial growth incubated for 24 hrs by broth microdilution method
[5] = tested on: Pseudomonas aeruginosa; assay: Antibacterial activity against Pseudomonas aeruginosa assessed as inhibition of bacterial growth incubated for 24 hrs by broth microdilution method
[6] = tested on: Moraxella catarrhalis; assay: Antibacterial activity against Moraxella catarrhalis assessed as inhibition of bacterial growth incubated for 24 hrs by broth microdilution method

| Structure (SMILES) | MIC [1] [µg/mL] | MIC [2] [µg/mL] | MIC [3] [µg/mL] | MIC [4] [µg/mL] | MIC [5] [µg/mL] | MIC [6] [µg/mL] |
| --- | --- | --- | --- | --- | --- | --- |
| CCCCCCCC(=O)N[C@@H](CCN)C(=O)N[C@H](C(=O)N[C@@H](CCN)C(=O)N[C@H]1CCNC(=O)[C@H](C(C)C)NC(=O)[C@H](CCN)NC(=O)[C@H](CCN)NC(=O)[C@H](CC(C)C)NC(=O)[C@@H](Cc2ccccc2)NC(=O)[C@H](CCN)NC1=O)[C@@H](C)O | 4 (≈ 3.37 µM) | 8 (≈ 6.74 µM) | 4 (≈ 3.37 µM) | 1 (≈ 0.842 µM) | 0.5 (≈ 0.421 µM) | 4 (≈ 3.37 µM) |
| CC(C)CCCCC(=O)N[C@@H](CCN)C(=O)N[C@H](C(=O)N[C@@H](CCN)C(=O)N[C@H]1CCNC(=O)[C@H]([C@@H](C)O)NC(=O)[C@H](CCN)NC(=O)[C@H](CCN)NC(=O)[C@H](CC(C)C)NC(=O)[C@@H](Cc2ccccc2)NC(=O)[C@H](CCN)NC1=O)[C@@H](C)OC(=O)[C@@H](N)CC(C)C | 4 (≈ 3.07 µM) | 0.25 (≈ 0.192 µM) | 1 (≈ 0.768 µM) | 0.06 (≈ 0.0461 µM) | 0.125 (≈ 0.096 µM) | > 16 |
| CCCCCCCC(=O)N[C@@H](CCN)C(=O)N[C@H](C(=O)N[C@@H](CCN)C(=O)N[C@H]1CCNC(=O)[C@H](CCN)NC(=O)[C@H](CCN)NC(=O)[C@H](CCN)NC(=O)[C@H](CC(C)C)NC(=O)[C@@H](Cc2ccccc2)NC(=O)[C@H](CCN)NC1=O)[C@@H](C)O | 64 (≈ 53.8 µM) | 8 (≈ 6.73 µM) | > 32 | 0.25 (≈ 0.21 µM) | 8 (≈ 6.73 µM) | 8 (≈ 6.73 µM) |
| CCCCCCCC(=O)N[C@@H](CCN)C(=O)NC(Cc1ccc(O)cc1)C(=O)N[C@@H](CCN)C(=O)N[C@H]1CCNC(=O)[C@H]([C@@H](C)O)NC(=O)[C@H](CCN)NC(=O)[C@H](CCN)NC(=O)[C@H](CC(C)C)NC(=O)[C@@H](Cc2ccccc2)NC(=O)[C@H](CCN)NC1=O (single isomer, unassigned) | 32 (≈ 25.6 µM) | 16 (≈ 12.8 µM) | > 64 | > 64 | 2 (≈ 1.6 µM) | 8 (≈ 6.39 µM) |
| CC(C)CCCCC(=O)N[C@@H](CCN)C(=O)N[C@@H](Cc1ccccc1)C(=O)N[C@@H](CCN)C(=O)N[C@H]1CCNC(=O)[C@H]([C@@H](C)O)NC(=O)[C@H](CCN)NC(=O)[C@H](CCN)NC(=O)[C@H](CC(C)C)NC(=O)[C@@H](Cc2ccccc2)NC(=O)[C@H](CCN)NC1=O | 4 (≈ 3.24 µM) | 4 (≈ 3.24 µM) | > 32 | 16 (≈ 12.9 µM) | 0.5 (≈ 0.405 µM) | 4 (≈ 3.24 µM) |
| CC(C)CCCCC(=O)N[C@@H](CCN)C(=O)N[C@H](C(=O)N[C@@H](CCN)C(=O)N[C@H]1CCNC(=O)[C@H]([C@@H](C)O)NC(=O)[C@H](CCN)NC(=O)[C@H](CCN)NC(=O)[C@H](CC(C)C)NC(=O)[C@@H](Cc2ccccc2)NC(=O)[C@H](CCN)NC1=O)[C@@H](C)OC(=O)[C@@H](N)CCCNC(=N)N | 2 (≈ 1.49 µM) | 0.5 (≈ 0.372 µM) | 1 (≈ 0.743 µM) | 0.25 (≈ 0.186 µM) | 0.5 (≈ 0.372 µM) | > 16 |
| CCCCCCCC(=O)N[C@@H](CCN)C(=O)N[C@H](C(=O)N[C@@H](CCN)C(=O)N[C@H]1CCNC(=O)[C@H](CC(=O)O)NC(=O)[C@H](CCN)NC(=O)[C@H](CCN)NC(=O)[C@H](CC(C)C)NC(=O)[C@@H](Cc2ccccc2)NC(=O)[C@H](CCN)NC1=O)[C@@H](C)O | 64 (≈ 53.2 µM) |  |  |  |  |  |

Now from value to molecule:

| MIC [1] [µg/mL] | MIC [2] [µg/mL] | MIC [3] [µg/mL] | MIC [4] [µg/mL] | MIC [5] [µg/mL] | MIC [6] [µg/mL] | Structure (SMILES) |
| --- | --- | --- | --- | --- | --- | --- |
| 2 (≈ 1.5 µM) | 0.25 (≈ 0.188 µM) | 2 (≈ 1.5 µM) | 0.06 (≈ 0.0451 µM) | 0.125 (≈ 0.0939 µM) | > 32 | CC[C@H](C)CCCCC(=O)N[C@@H](CCN)C(=O)N[C@H](C(=O)N[C@@H](CCN)C(=O)N[C@H]1CCNC(=O)[C@H]([C@@H](C)O)NC(=O)[C@H](CCN)NC(=O)[C@H](CCN)NC(=O)[C@H](CC(C)C)NC(=O)[C@@H](Cc2ccccc2)NC(=O)[C@H](CCN)NC1=O)[C@@H](C)OC(=O)[C@@H](N)CCC(N)=O |
| 2 (≈ 1.51 µM) | 0.25 (≈ 0.189 µM) | 2 (≈ 1.51 µM) | 0.125 (≈ 0.0946 µM) | 0.125 (≈ 0.0946 µM) | > 16 | CSCC[C@H](N)C(=O)O[C@H](C)[C@H](NC(=O)[C@H](CCN)NC(=O)CCCCC(C)C)C(=O)N[C@@H](CCN)C(=O)N[C@H]1CCNC(=O)[C@H]([C@@H](C)O)NC(=O)[C@H](CCN)NC(=O)[C@H](CCN)NC(=O)[C@H](CC(C)C)NC(=O)[C@@H](Cc2ccccc2)NC(=O)[C@H](CCN)NC1=O |
| 2 (≈ 1.55 µM) | 0.25 (≈ 0.193 µM) | 1 (≈ 0.774 µM) | 0.125 (≈ 0.0967 µM) | 0.25 (≈ 0.193 µM) | 32 (≈ 24.8 µM) | CC(C)CCCCC(=O)N[C@@H](CCN)C(=O)N[C@H](C(=O)N[C@@H](CCN)C(=O)N[C@H]1CCNC(=O)[C@H]([C@@H](C)O)NC(=O)[C@H](CCN)NC(=O)[C@H](CCN)NC(=O)[C@H](CC(C)C)NC(=O)[C@@H](Cc2ccccc2)NC(=O)[C@H](CCN)NC1=O)[C@@H](C)OC(=O)[C@@H](N)CS |
| 2 (≈ 1.52 µM) | 0.5 (≈ 0.379 µM) | 2 (≈ 1.52 µM) | 0.06 (≈ 0.0455 µM) | 0.25 (≈ 0.19 µM) | > 32 | CC(C)CCCCC(=O)N[C@@H](CCN)C(=O)N[C@H](C(=O)N[C@@H](CCN)C(=O)N[C@H]1CCNC(=O)[C@H]([C@@H](C)O)NC(=O)[C@H](CCN)NC(=O)[C@H](CCN)NC(=O)[C@H](CC(C)C)NC(=O)[C@@H](Cc2ccccc2)NC(=O)[C@H](CCN)NC1=O)[C@H](C)OC(=O)[C@@H](N)CCC(N)=O |
| 2 (≈ 1.51 µM) | 0.5 (≈ 0.377 µM) | 4 (≈ 3.02 µM) | 0.125 (≈ 0.0942 µM) | 0.5 (≈ 0.377 µM) | 8 (≈ 6.03 µM) | CC(C)CCCCC(=O)N[C@@H](CCN)C(=O)N[C@H](C(=O)N[C@@H](CCN)C(=O)N[C@H]1CCNC(=O)[C@H]([C@@H](C)O)NC(=O)[C@H](CCN)NC(=O)[C@H](CCN)NC(=O)[C@H](CC(C)C)NC(=O)[C@@H](Cc2ccccc2)NC(=O)[C@H](CCN)NC1=O)[C@@H](C)OC(=O)[C@@H](N)Cc1c[nH]cn1 |
